Bridge positions count the residues as written; N and C are the ends. Square brackets hold non-standard residues; d marks the D form. Peptide text beside a SMILES is read from it. * marks the point of attachment. Trp(1-CH2COOH) = N[C@@H](Cc1cn(CC(=O)O)c2ccccc12)C(=O)O; Trp(1-Me) = Cn1cc(C[C@H](N)C(=O)O)c2ccccc21; Phe(4-F) = N[C@@H](Cc1ccc(F)cc1)C(=O)O; Hyp = O=C(O)[C@@H]1C[C@@H](O)CN1; NMeNle = CCCC[C@H](NC)C(=O)O; NMeC = CN[C@@H](CS)C(=O)O; Pip = O=C(O)[C@@H]1CCCCN1; Dab = NCC[C@H](N)C(=O)O; Dap = NC[C@H](N)C(=O)O; Piv = CC(C)(C)C(=O)*
molecular target: T1, PD-1/PD-L1 (Homo sapiens, UniProt Q9NZQ7); test: PD-1/PD-L1 Homogenous Time-Resolved Fluorescence (HTRF) binding assay; conditions: PD-L1-His 10 nM final, PD-1-Ig 20 nM final; inhibitors pre-incubated with PD-L1-His for 15 m
T1 construct: TVMV protease site linker (C); made in house; host or cells: HEK293T cells
Outline: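 Compounds pre-incubated 15 min with human PD-L1(18-239)-His (10 nM final), then PD-1(25-167)-Ig (20 nM final) added for 15 min, in dPBS with 0.1% BSA and 0.05% Tween-20. Eu-cryptate anti-Ig (1 nM) and APC anti-His (20 nM) added, 30 min equilibration, 665/620 nm ratio read; IC50 reported.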

IC50 | Structure (SMILES)
50.3 nM | CCCC[C@H]1C(=O)N(C)[C@@H](CCCC)C(=O)N[C@@H](CC(C)C)C(=O)N[C@H](C(N)=O)CSCC(=O)N[C@@H](Cc2ccc(F)cc2)C(=O)N2CCCC[C@H]2C(=O)N[C@@H](CC(N)=O)C(=O)N2CCC[C@H]2C(=O)N[C@@H](CNC(=O)C(C)(C)C)C(=O)N[C@@H](CC(C)C)C(=O)N2C[C@H](O)C[C@H]2C(=O)N[C@@H](Cc2c[nH]c3ccccc23)C(=O)N[C@@H](CCNC(=O)C(C)(C)C)C(=O)N[C@@H](Cc2cn(C)c3ccccc23)C(=O)N1C [Example 20280] ({CH2CO}-[Phe(4-F)][Pip]NP[Dap](Piv)L[Hyp]W[Dab](Piv)[Trp(1-Me)][NMeNle][NMeNle]LC-NH2; thioether N-14)
70.1 nM | CCCC[C@H]1C(=O)N(C)[C@@H](CCCC)C(=O)N[C@@H](CCC(=O)O)C(=O)N[C@H](C(N)=O)CSCC(=O)N[C@@H](Cc2ccc(F)cc2)C(=O)N2CCCC[C@H]2C(=O)N[C@@H](CC(=O)O)C(=O)N2CCC[C@H]2C(=O)N[C@@H](CNC(=O)C(C)(C)C)C(=O)N[C@@H](CC(C)C)C(=O)N2C[C@H](O)C[C@H]2C(=O)N[C@@H](Cc2c[nH]c3ccccc23)C(=O)N[C@@H](CCNC(=O)C(C)(C)C)C(=O)N[C@@H](Cc2cn(C)c3ccccc23)C(=O)N1C [Example 20290] ({CH2CO}-[Phe(4-F)][Pip]DP[Dap](Piv)L[Hyp]W[Dab](Piv)[Trp(1-Me)][NMeNle][NMeNle]EC-NH2; thioether N-14)
38.2 nM | CCCC[C@H]1C(=O)N(C)[C@@H](CCCC)C(=O)N[C@@H](CC(C)C)C(=O)N[C@H](C(N)=O)CSCC(=O)N[C@@H](Cc2ccc(F)cc2)C(=O)N2CCCC[C@H]2C(=O)N[C@@H](CC(N)=O)C(=O)N2CCC[C@H]2C(=O)N[C@@H](CNC(=O)C(C)(C)C)C(=O)N[C@@H](CC(C)C)C(=O)N2C[C@H](O)C[C@H]2C(=O)N[C@@H](Cc2c[nH]c3ccccc23)C(=O)N[C@@H](CCN)C(=O)N[C@@H](Cc2cn(CC(=O)O)c3ccccc23)C(=O)N1C [Example 20300] ({CH2CO}-[Phe(4-F)][Pip]NP[Dap](Piv)L[Hyp]W[Dab][Trp(1-CH2COOH)][NMeNle][NMeNle]LC-NH2; thioether N-14)
18 nM | CCCC[C@H]1C(=O)N(C)[C@@H](CCCC)C(=O)N[C@@H](CC(C)C)C(=O)N(C)[C@H](C(N)=O)CSCC(=O)N[C@@H](Cc2ccc(F)cc2)C(=O)N2CCCC[C@H]2C(=O)N[C@@H](CC(=O)N(C)C)C(=O)N2CCC[C@H]2C(=O)N[C@@H](CNC(=O)C(C)(C)C)C(=O)N[C@@H](CC(C)C)C(=O)N2C[C@H](O)C[C@H]2C(=O)N[C@@H](Cc2c[nH]c3ccccc23)C(=O)N[C@@H](CO)C(=O)N[C@@H](Cc2cn(CC(=O)O)c3ccccc23)C(=O)N1C [Example 20310] ({CH2CO}-[Phe(4-F)][Pip]D(NMe2)P[Dap](Piv)L[Hyp]WS[Trp(1-CH2COOH)][NMeNle][NMeNle]L[NMeC]-NH2; thioether N-14)

— US20220251141A1, “IMMUNOMODULATORS” (Bristol-Myers Squibb Company, priority 2019, published 2022)
